Assay results taken from patent US4147787A, “4,5,6,7-Tetrahydro-thieno[2,3-c]-and [3,2-c]-pyridines, and therapeutic compositions containing the same” (Parcor, priority 1977, dated 1979).

Tested on: thrombus
Assay: Anti-thrombosis properties (metal helix in vena cava inferior, based on Friedman)
Assay type: in vivo, female Wistar rats
Details: from Table IV
From the text: The technique used is based on that disclosed by Friedman (Amer. J. Med. Sci., 253, 83, 1967). […] A 1.8 cm long sharp metal helix is introduced in the lumen of the vessel at the level of the renal fork and "screwed" toward the iliac veins. Five hours later, the animal is again anesthetized with ether. […] The helix, together with the thrombus it retains, is taken out after carefully opening the vena cava throughout the length involved; it is then dried by repeated dabbing with filter paper and is weighed a first time. Immediately thereafter, the helix is freed from its thrombus in a physiological saline bath, and is then again dried and weighed. The difference in weight gives the weight of the thrombus. It was found on histological examination that these were white thrombi.
Different groups of 10 rats each are treated by gastric intubation with one of the test derivatives, 48 hours, 24 hours and 2 hours prior to the implantation of the metal helix. Samples were taken five hours after said implantation.
Identical tests were carried out with dipyridamole and acetylsalicylic acid.

Structure (SMILES): CC(=O)Oc1ccccc1C(=O)O [acetylsalicylic acid]
- anti-thrombosis activity (in words): little activity

Structure (SMILES): OCCN(CCO)c1nc(N2CCCCC2)c2nc(N(CCO)CCO)nc(N3CCCCC3)c2n1 [dipyridamole]
- anti-thrombosis activity (in words): no activity
